Patent US9643968B2, “Fused acridine derivative and pharmaceutical composition, preparation method and use thereof” (Peking University, priority 2014, dated 2017)

Legend:
[1] = tested on: HCT116 (human colon cancer cell); experiment: MTT in vitro cytotoxicity, HCT116; format: cell-based; conditions: HCT-116, 72 hr incubation
Procedure: (§1) Materials and methods: MTT (3-[4,5-dimethylthiazol-2-yl]-diphenyl tetrazolium bromide) method was employed to determine the antiproliferative activity of all the compounds of the Examples and Contrasting Examples in vitro against selected cell lines, including HCT116 (human colon cancer cell), PC-3 (human prostate cancer), HepG2 (human hepatocellular carcinoma), SK-OV-3 (human ovarian adenocarcinoma), MCF-7 (human breast cancer), U87MG (human glioblastoma cell) cell lines.
(§2) Procedure: Human tumor cells of HCT116, PC-3, HepG2, SK-OV-3, MCF-7, and U87MG were in vitro cultured, and collected until the cells grow to the logarithmic phase. The cells were centrifuged for 5 minutes at 1000 rpm, and supernatant was discarded. Subsequently appropriate culture medium was added to suspend the precipitation, and the concentration of cells was adjusted to 3.5˜5.5×10^4/mL. the suspensions of cells were seeded in 96-well microplate at 100 μL per well, and incubated in incubator (37° C., 5% CO2) for 24 hr. The compound to test was added. For the control group, equivalent concentration of DMSO (final concentration 0.5%) was added. For each group, three copy wells were set. After incubated for 72 hr, 20 μL 5 mg/mL of MTT was added into each well, and placed at 37° C. for 3 hr. 150 μL of DMSO was added into each wells, and vibrated the shaker at 37° C. for 5 mins, then measured the absorbance (OD) value at 492 nm/620 nm. The IC50 values were calculated using Prism 5.0 software.

[2] = tested on: HepG2 (human hepatocellular carcinoma); experiment: MTT in vitro cytotoxicity, HepG2; format: cell-based; conditions: 72 hr incubation
Procedure: as §1, §2

[3] = tested on: MCF-7 (human breast cancer); experiment: MTT in vitro cytotoxicity, MCF-7; format: cell-based; conditions: MCF7, 72 hr incubation
Procedure: as §1, §2

tumor cells (U87MG) = experiment: Assay for inhibiting cancer cell clone formation (soft agar); format: cell-based, human; conditions: concentration range from 0.020 to 0.090 μM, 10-14 days
Procedure: Materials and methods: The tested tumor cells (U87MG) in the logarithmic phase were digested with 0.25% trypsin then percussed gently to the single cell state, and counted the live cells. The cells density was adjusted to 1×10^6[…] with DMEM containing 20% fetal bovine serum, and then diluted gradiently according to the experiment requirement.
Two concentrations (1.2% and 0.7%) of low melting point agarose fluid were prepared with distilled water respectively. A mixture of 1.2% agarose fluid and 2×DMEM medium (contains 2× antibiotics and 20% calf serum) was prepared in 1:1 ratio, then transferred (3 mL) into 6 cm diameter flat dishes, cooled to solidification to furnish the bottom agar which was stored in a CO2 incubator. The cell suspension (0.2 mL) was added to a mixture of 0.7% agarose and 2×DMEM medium which was prepared in 1:1 ratio in sterile tubes, and thoroughly mixed before injection to the precoated dishes to form the double layer agar. After the upper agar being solidified, the dishes were incubated in 37° C. and 5% CO2 for 10-14 days, each experiment was performed in 3-6 times.
The number of clones was counted under an inverted microscope. The clone formation rate was calculated.

U87MG cells = experiment: In vivo antitumor activity test, U87MG subcutaneous xenograft; set-up: species or system BALB/c nude mice; conditions: oral qd × 5/w; for tumor inhibition rate (IR): 10 doses, by tumor weight
Procedure: (§3) Animals: Female 6-8 weeks BALB/c nude mice weighed 16 to 18 g. They were raised at SPF-level animal room with a 12 h light-dark cycle; drinking and eating were provided ad libitum.
(§4) Under aseptic conditions, U87MG cells in the logarithmic phase were digested and its density was adjusted. U87MG cells were inoculated hypodermically in BALB/c nude mice, 0.1 mL for each mouse. The diameter of the transplantation was measured with a Vernier caliper. After their tumor size was about 100-200 mm^3, 36 mice were randomly divided into 5 groups according to the tumor size. The mice of each group was orally administered the dose respectively according to the above-mentioned schedule, and the mice of the vehicle group were given same dose of saline. The first day of dosing named for D1. The long diameter and short diameter of the tumor size of each mouse were measured twice a week, and the body weights were recorded at the same time.
Indicators were observed, measured, and recorded from the first day of dosing. The tumor size was measured using a Vernier caliper to calculate tumor volume change and the tumor growth. After the tumor-burdened mice were executed and dissected, the tumor tissues were separated, and weighed.
(§5) Indicators for antitumor efficacy evaluation including: relative tumor inhibition rate, body weight, general state of the mice and related toxicity index. Curves of tumor growth and body weight change of every group were plotted at the end of the experiment.
The calculation formula for tumor volume (TV) is: TV=½×a×b^2, where a and b means long diameter and short diameter of the tumor size respectively.
Tumor inhibition rate IR (%)=(1−TTW/CTW)×100%, TTW: TW of the treatment group; CTW: TW of the control group.
Statistical analysis: Data were analyzed using SPSS 11.0 with Student t-test for comparisons and ANOVA. P-values <0.05 were considered significant.

[4] = Body weight in U87MG tumor-bearing mice; format: in vivo, BALB/c nude mice; conditions: oral qd × 5/w
Procedure: as §3, §4, §5

SMILES | IC50 [1] [µM] | IC50 [2] [µM] | IC50 [3] [µM] | also measured
CN(C)CCCN1C(=O)c2c3cc(I)ccc3nc3cccc1c23 [Compound 7d, 2-(3-(dimethylamino)propyl)-9-iodopyrrolo[2,3,4-kl]acridin-1-(2H)-one] | 2.64 | 3.78 | 2.8 | –
COc1ccc2nc3c(C)ccc4c3c(c2c1)C(=O)N4CCN(C)C.O=C(O)/C=C/C(=O)O [Compound 5c′, 2-(2-(dimethylamino)ethyl)-9-methoxy-5-methylpyrrolo[2,3,4-kl]-acridin-1-(2H)-one fumarate] | – | – | – | inhibition of glioma cell clone formation (tumor cells (U87MG)): significantly inhibited; tumor size compared with the vehicle (U87MG cells; high dose group (80 mg/kg)): significantly smaller than the vehicle; tumor inhibition rate (IR) (U87MG cells; high dose group (80 mg/kg)): 91%; tumor size compared with the vehicle (U87MG cells; median dose group (40 mg/kg)): significantly smaller than the vehicle; tumor inhibition rate (IR) (U87MG cells; median dose group (40 mg/kg)): 69%; animal weight compared with the vehicle ([4]; high dose group (80 mg/kg)): grew slowly compared with the vehicle; animal weight loss compared with the positive control (TMZ) group ([4]; high dose group (80 mg/kg)): significantly lower than the positive control; animal weight compared with the vehicle ([4]; median dose group (40 mg/kg)): grew slowly compared with the vehicle
CN(C)CCN1C(=O)c2c3cc(Br)ccc3nc3cccc1c23 [Compound 7a, 9-bromo-2-(2-(dimethylamino)ethyl)pyrrolo[2,3,4-kl]acridin-1-(2H)-one] | 1.87 | 1.85 | 1.97 | –
Cn1nnc2c(C(N)=O)ncn2c1=O [TMZ, Temozolomide, reference compound] | – | – | – | animal weight compared with the vehicle ([4]; 50 mg/kg): significant lower compared with the vehicle
CN(C)CCCN1C(=O)c2c3cc(Br)ccc3nc3cccc1c23 [Compound 7b, 9-bromo-2-(3-(dimethylamino)propyl)pyrrolo[2,3,4-kl]acridin-1-(2H)-one] | 2.27 | 3.84 | 2.15 | –
